Data on two compounds can be found in publication PMC8739347 (Tropical Medicine and Health, 2022).

Experiment in all cases: Antiviral activity assay in Vero E6 cells, qRT-PCR of supernatant
Holding throughout (format): cell-based
A general note: Quantitative PCR measures a nucleic acid by following its amplification.

Experiment [1] has as its system SARS-CoV-2 Gamma variant (hCoV-19/Japan/TY7-501/2020). The settings on record: for IC50: Severe acute respiratory syndrome coronavirus 2, Vero C1008, Gamma, compound concentration (for 5-ALA/SFC the 5-ALA concentration, ratio 4:1).
Experiment [2] concerns SARS-CoV-2 Alpha variant (hCoV-19/Japan/QK002/2020). The settings on record: Severe acute respiratory syndrome coronavirus 2, Vero C1008, compound concentration (for 5-ALA/SFC the 5-ALA concentration, ratio 4:1).
Experiment [3] relates to SARS-CoV-2 Beta variant (hCoV-19/Japan/TY8-612/2020). The settings on record: Severe acute respiratory syndrome coronavirus 2, Vero C1008, compound concentration (for 5-ALA/SFC the 5-ALA concentration, ratio 4:1).
Experiment [4] concerns SARS-CoV-2 Delta variant (hCoV-19/Japan/TY11-330-P1//2021). The settings on record: for IC50: Severe acute respiratory syndrome coronavirus 2, Vero C1008, Delta, compound concentration (for 5-ALA/SFC the 5-ALA concentration, ratio 4:1).

As a reminder, the IC50 is the concentration that gives 50% inhibition.

Regarding `NCC(=O)CCC(=O)O` [5-ALA, 5-aminolevulinic acid], the viral inhibition entry in experiment [1] is reported as “no viral inhibition”; in experiment [4], “little viral inhibition”. The IC50 in experiment [1] was more than 2000 µM; in experiment [2], 104 µM; in experiment [3] it was 1590 µM; in experiment [4] it was more than 2000 µM.

Consider `CCC(CC)COC(=O)[C@H](C)N[P@](=O)(OC[C@H]1O[C@@](C#N)(c2ccc3c(N)ncnn23)[C@H](O)[C@@H]1O)Oc1ccccc1` [remdesivir, Remdesivir], for which the IC50 in experiment [1], in experiment [2], in experiment [3] and in experiment [4] was 0.1 to 1 µM each time.
